# Measured values published in PubChem BioAssay AID2060908 (Molecular Pharmacology Branch, DTP, NCI, 2025).
# Test system: 186277-243-T-J2-PDC complex spheroids, viability
# Assay: Anticancer human tumor 186277-243-T-J2-PDC patient-derived colon adenocarcinoma cell line growth inhibition [RAS]
# Conditions: for viability, T/C: stronger effect = lower value
# In short: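 Multi-cell-type spheroids: tumor cells plus HUVEC endothelial cells and mesenchymal stem cells. RAS-pathway inhibitors were combined with targeted agents, each dosed in half-log steps down from clinical Cmax, or from 10 microM when Cmax was unknown.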
# [1] = curve of first compound, second compound 0.000949 µM
# [2] = curve of first compound, second compound 0.003 µM
# [3] = curve of first compound, second compound 0.00949 µM
# [4] = curve of first compound, second compound 0.03 µM
# [5] = curve of first compound, second compound 0.0949 µM
# [6] = curve of first compound, second compound 0.3 µM
# [7] = second compound 0.000949 µM, first compound 0.0316 µM
# [8] = second compound 0.000949 µM, first compound 0.1 µM
# [9] = second compound 0.000949 µM, first compound 0.316 µM
# [10] = second compound 0.000949 µM, first compound 1 µM
# [11] = second compound 0.000949 µM, first compound 3.16 µM
# [12] = second compound 0.000949 µM, first compound 10 µM
# [13] = second compound 0.003 µM, first compound 0.0316 µM
# [14] = second compound 0.003 µM, first compound 0.1 µM
# [15] = second compound 0.003 µM, first compound 0.316 µM
# [16] = second compound 0.003 µM, first compound 1 µM
# [17] = second compound 0.003 µM, first compound 3.16 µM
# [18] = second compound 0.003 µM, first compound 10 µM
# [19] = second compound 0.00949 µM, first compound 0.0316 µM
# [20] = second compound 0.00949 µM, first compound 0.1 µM
# [21] = second compound 0.00949 µM, first compound 0.316 µM
# [22] = second compound 0.00949 µM, first compound 1 µM
# [23] = second compound 0.00949 µM, first compound 3.16 µM
# [24] = second compound 0.00949 µM, first compound 10 µM
# [25] = second compound 0.03 µM, first compound 0.0316 µM
# [26] = second compound 0.03 µM, first compound 0.1 µM
# [27] = second compound 0.03 µM, first compound 0.316 µM
# [28] = second compound 0.03 µM, first compound 1 µM
# [29] = second compound 0.03 µM, first compound 3.16 µM
# [30] = second compound 0.03 µM, first compound 10 µM
# [31] = second compound 0.0949 µM, first compound 0.0316 µM
# [32] = second compound 0.0949 µM, first compound 0.1 µM
# [33] = second compound 0.0949 µM, first compound 0.316 µM
# [34] = second compound 0.0949 µM, first compound 1 µM
# [35] = second compound 0.0949 µM, first compound 3.16 µM
# [36] = second compound 0.0949 µM, first compound 10 µM
# [37] = second compound 0.3 µM, first compound 0.0316 µM
# [38] = second compound 0.3 µM, first compound 0.1 µM
# [39] = second compound 0.3 µM, first compound 0.316 µM
# [40] = second compound 0.3 µM, first compound 1 µM
# [41] = second compound 0.3 µM, first compound 3.16 µM
# [42] = second compound 0.3 µM, first compound 10 µM
# 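Also: spheroids exposed to compounds for 7 days before viability read.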
smiles,measurement,setting,value
CC(=O)OC12COC1CC(O)C1(C)C(=O)C(O)C3=C(C)C(OC(=O)C(O)C(NC(=O)OC(C)(C)C)c4ccccc4)CC(O)(C(OC(=O)c4ccccc4)C21)C3(C)C (configuration not stated) + CCn1c(-c2cccnc2C(C)OC)c2c3cc(ccc31)N1CCOC(CC(NC(=O)C(C(C)C)N(C)C(=O)C3(F)CCN(C(=O)C#CC(C)(C)N(C)C)CC3)C(=O)N3CCCC(N3)C(=O)OCC(C)(C)C2)C1,IC50,[1],< 31.6 nM
same,IC50,[2],< 31.6 nM
same,IC50,[3],< 31.6 nM
same,IC50,[4],< 31.6 nM
same,IC50,[5],< 31.6 nM
same,IC50,[6],< 31.6 nM
same,"viability, T/C",[7],6.09%
same,"viability, T/C",[8],4.29%
same,"viability, T/C",[9],4.45%
same,"viability, T/C",[10],5%
same,"viability, T/C",[11],4.34%
same,"viability, T/C",[12],4.13%
same,"viability, T/C",[13],6%
same,"viability, T/C",[14],5.13%
same,"viability, T/C",[15],5.03%
same,"viability, T/C",[16],4.41%
same,"viability, T/C",[17],4.14%
same,"viability, T/C",[18],4.35%
same,"viability, T/C",[19],6.17%
same,"viability, T/C",[20],4.96%
same,"viability, T/C",[21],4.57%
same,"viability, T/C",[22],4.98%
same,"viability, T/C",[23],4.48%
same,"viability, T/C",[24],3.96%
same,"viability, T/C",[25],5.87%
same,"viability, T/C",[26],4.93%
same,"viability, T/C",[27],4.72%
same,"viability, T/C",[28],3.83%
same,"viability, T/C",[29],4.63%
same,"viability, T/C",[30],4.2%
same,"viability, T/C",[31],5.78%
same,"viability, T/C",[32],4.53%
same,"viability, T/C",[33],4.78%
same,"viability, T/C",[34],4.23%
same,"viability, T/C",[35],4.24%
same,"viability, T/C",[36],4.22%
same,"viability, T/C",[37],4.84%
same,"viability, T/C",[38],3.52%
same,"viability, T/C",[39],3.6%
same,"viability, T/C",[40],3.55%
same,"viability, T/C",[41],3.32%
same,"viability, T/C",[42],3.72%
CCn1c(-c2cc(N3CCN(C)CC3)cnc2C(C)OC)c2c3cc(ccc31)-c1csc(n1)CC(NC(=O)C1CC1C)C(=O)N1CCCC(N1)C(=O)OCC(C)(C)C2 (configuration not stated),"viability, T/C",compound 0.000949 µM,105% [middle of 8 runs]
same,"viability, T/C",compound 0.00949 µM,55.2% [middle of 8 runs]
same,"viability, T/C",compound 0.03 µM,15.2% [middle of 8 runs]
same,"viability, T/C",compound 0.0949 µM,7.7% [middle of 7 runs]
same,"viability, T/C",compound 0.3 µM,6.43% [middle of 8 runs]
same,IC50,"compound alone, run of 05/20/2024",10.4 nM [middle of 8 runs]
CC(C)NCC(C(=O)N1CCN(c2ncnc3c2C(C)CC3O)CC1)c1ccc(Cl)cc1 (configuration not stated) + C#Cc1c(F)ccc2cc(O)cc(-c3ncc4c(N5CC6CCC(C5)N6)nc(OCC56CCCN5CC(F)C6)nc4c3F)c12,IC50,"curve of first compound, second compound 0.0316 µM",244 nM
same,IC50,"curve of first compound, second compound 0.1 µM",117 nM
same,IC50,"curve of first compound, second compound 0.316 µM",< 31.6 nM
same,IC50,"curve of first compound, second compound 1 µM",< 31.6 nM
same,IC50,"curve of first compound, second compound 3.16 µM",< 31.6 nM
same,IC50,"curve of first compound, second compound 10 µM",< 31.6 nM
same,"viability, T/C","second compound 0.0316 µM, first compound 0.0316 µM",74.3%
same,"viability, T/C","second compound 0.0316 µM, first compound 0.1 µM",76.1%
same,"viability, T/C","second compound 0.0316 µM, first compound 0.316 µM",40.8%
same,"viability, T/C","second compound 0.0316 µM, first compound 1 µM",20.5%
same,"viability, T/C","second compound 0.0316 µM, first compound 3.16 µM",10.6%
same,"viability, T/C","second compound 0.0316 µM, first compound 10 µM",7.17%
same,"viability, T/C","second compound 0.1 µM, first compound 0.0316 µM",55.4%
same,"viability, T/C","second compound 0.1 µM, first compound 0.1 µM",55.4%
same,"viability, T/C","second compound 0.1 µM, first compound 0.316 µM",29.3%
same,"viability, T/C","second compound 0.1 µM, first compound 1 µM",12%
same,"viability, T/C","second compound 0.1 µM, first compound 3.16 µM",6.43%
same,"viability, T/C","second compound 0.1 µM, first compound 10 µM",4.17%
same,"viability, T/C","second compound 0.316 µM, first compound 0.0316 µM",28.8%
same,"viability, T/C","second compound 0.316 µM, first compound 0.1 µM",26.3%
same,"viability, T/C","second compound 0.316 µM, first compound 0.316 µM",13.1%
same,"viability, T/C","second compound 0.316 µM, first compound 1 µM",5.77%
same,"viability, T/C","second compound 0.316 µM, first compound 3.16 µM",3.93%
same,"viability, T/C","second compound 0.316 µM, first compound 10 µM",2.95%
same,"viability, T/C","second compound 1 µM, first compound 0.0316 µM",17.7%
same,"viability, T/C","second compound 1 µM, first compound 0.1 µM",14.4%
same,"viability, T/C","second compound 1 µM, first compound 0.316 µM",10.1%
same,"viability, T/C","second compound 1 µM, first compound 1 µM",5.25%
same,"viability, T/C","second compound 1 µM, first compound 3.16 µM",4.08%
same,"viability, T/C","second compound 1 µM, first compound 10 µM",2.03%
same,"viability, T/C","second compound 3.16 µM, first compound 0.0316 µM",12.4%
same,"viability, T/C","second compound 3.16 µM, first compound 0.1 µM",11.2%
same,"viability, T/C","second compound 3.16 µM, first compound 0.316 µM",9.1%
same,"viability, T/C","second compound 3.16 µM, first compound 1 µM",3.67%
same,"viability, T/C","second compound 3.16 µM, first compound 3.16 µM",2.83%
same,"viability, T/C","second compound 3.16 µM, first compound 10 µM",2.07%
same,"viability, T/C","second compound 10 µM, first compound 0.0316 µM",8.59%
same,"viability, T/C","second compound 10 µM, first compound 0.1 µM",9.81%
same,"viability, T/C","second compound 10 µM, first compound 0.316 µM",5.65%
same,"viability, T/C","second compound 10 µM, first compound 1 µM",3.64%
same,"viability, T/C","second compound 10 µM, first compound 3.16 µM",2.9%
same,"viability, T/C","second compound 10 µM, first compound 10 µM",0.94%
Cc1nc(N2CCC3(CC2)COC(C)C3N)c(CO)nc1Sc1ccnc(N)c1Cl (configuration not stated) + CCn1c(-c2cccnc2C(C)OC)c2c3cc(ccc31)N1CCOC(CC(NC(=O)C(C(C)C)N(C)C(=O)C3(F)CCN(C(=O)C#CC(C)(C)N(C)C)CC3)C(=O)N3CCCC(N3)C(=O)OCC(C)(C)C2)C1,IC50,[1],> 10000 nM
same,IC50,[2],> 10000 nM
same,IC50,[3],> 10000 nM
same,IC50,[4],> 10000 nM
same,IC50,[5],> 10000 nM
same,IC50,[6],> 10000 nM
same,"viability, T/C",[7],88.9%
same,"viability, T/C",[8],85.4%
same,"viability, T/C",[9],111%
same,"viability, T/C",[10],104%
same,"viability, T/C",[11],141%
same,"viability, T/C",[12],131%
same,"viability, T/C",[13],91.8%
same,"viability, T/C",[14],100%
same,"viability, T/C",[15],98.2%
same,"viability, T/C",[16],114%
same,"viability, T/C",[17],133%
same,"viability, T/C",[18],130%
same,"viability, T/C",[19],99.9%
same,"viability, T/C",[20],130%
same,"viability, T/C",[21],105%
same,"viability, T/C",[22],113%
same,"viability, T/C",[23],132%
same,"viability, T/C",[24],128%
same,"viability, T/C",[25],92.3%
same,"viability, T/C",[26],110%
same,"viability, T/C",[27],108%
same,"viability, T/C",[28],126%
same,"viability, T/C",[29],137%
same,"viability, T/C",[30],116%
same,"viability, T/C",[31],98.2%
same,"viability, T/C",[32],123%
same,"viability, T/C",[33],117%
same,"viability, T/C",[34],127%
same,"viability, T/C",[35],137%
same,"viability, T/C",[36],101%
same,"viability, T/C",[37],122%
same,"viability, T/C",[38],114%
same,"viability, T/C",[39],107%
same,"viability, T/C",[40],92.9%
same,"viability, T/C",[41],92.1%
same,"viability, T/C",[42],62.8%
